What was measured:
C57BL/6J mice = test: Pilot study in mice, liver mRNA expression by RT-qPCR; type: in vivo; conditions: 3x 30 mg/kg p.o. gavage, liver 24 h after last application, vs vehicle
Description: Compounds 35 and 37 have been applied three times after 24 h (3x 30 mg/kg) via p.o. gavage to wild-type C57BL/6J mice. After 24 h from the last application, mice were sacrificed, and live samples collected on dry ice for total RNA isolation. RT-qPCR experiments have been performed with TaqMan probes and expression has been quantified using a reference gene (beta-actin and Gapdh) and delta-delta method. Data represents fold up or downregulation in mRNA expression for tested genes related to the expression in vehicle-treated control animals. * - statistically significant (p<0.05) up- or down- regulation in animals treated with tested compounds (n=4).
In the pilot study, compounds of the invention 37 and 35 were applied by per os probe (gavage) to male mice of age 15 weeks (n=4 per group) three times (3 x 30 mg/kg b.w.) in 1%PEG300/methylcellulose solution (compounds of EXAMPLE 37or 35). Livers were sampled 24 hours after application into liquid nitrogen for total RNA insolation and for qRT-PCR analysis (Quantstudio 7 HT Fast Real-Time PCR System).
Expressions of NR target genes mRNAs in livers of mice or in 3D cultured (spheroids) primary human hepatocytes have been performed using TaqMan probes-based RT-qPCR after isolation of total RNA by Trizol® (ThermoFischer Scientific) reagent and reverse transcription synthesis of cDNA in Quant Studio cycler. Real-time qPCR TaqMan probes have been purchased prom ThermoFisher scientific (Cat. No. 4351372 and 433118). Delta-delta method and Gapdh or TATA-box binding protein (TBP) housekeeping genes were used for relative quantification. Data are expressed as fold up-/down-regulation compared to vehicle-treated samples/mice.

[1] = system: C57BL/6J mice fed with high fat diet; test: Proof-of-concept study in mice fed with high fat diet: plasma biochemistry, weights, IPGTT; type: in vivo; conditions: HFD mice; for glucose plasma levels in Intraperitoneal Glucose Tolerance Test (IPGTT): IPGTT 1.5 g/kg BW
From the text: Control group received a chow diet.
In the proof-of-concept study, after a 1-week of adaptation period, male C57BL/6J mice were randomly divided into three groups: (i) mice fed a chow diet (control; PicoLab RD 20, LabDiet) and tap water (n=4) or (ii) mice fed a high-fat diet (HFD) consisting of Western diet (AIN-76A WD, TestDiet, 20 % fat) and glucose (18.1 g/L) with fructose (24 g/L) provided in water. At week 21 on HFD diet, mice were randomly assigned into two experimental groups (10 and 11 mice per group): (ii) group on HFD, (iii) group on HFD administered with 10 mg/kg compound of EXAMPLE 37 as a salt (hydrochloride) (HFD +comp. 37). Compound of EXAMPLE 37or vehicle (1% methylcellulose) were administered once daily by oral gavage for another 3 weeks together with diets.
The i.p. Glucose tolerance test has been performed seven days before the termination of the study. For the purpose, […] of glucose dissolved in saline has been applied and blood was sampled in four intervals up to 120 minutes form tail vein. A standard glucometer was used to measure glycemia.
For biochemistry analyses, plasma liver enzyme activities were analyzed in plasma by a commercial Preventive Care Profile Plus test with Vetscan 2 device (Abaxis). Level of cholesterol and triglycerides in plasma and liver were measured by commercial kits (Erba Lachema s.r.o., Brno, Czech Republic).
Animals were sacrificed by anesthesia overdose. Plasma samples were obtained from the whole blood by centrifugation at 2,000 × g for 5 min at 4°C. The liver, gallbladder and abdominal fat were excised, weighted and immediately frozen in liquid nitrogen. All samples were stored at -80°C until analysis.

human LXRα = target: T1, human LXRα (Homo sapiens, UniProt Q13133); test: LXRα luciferase reporter gene assay, inhibition of activation by GW3965 (pGAL4-LXRα / pGL5-UAS 9x) in HepG2 cells; type: cell-based; conditions: HepG2, 24 h; read-out: LXRα antagonism
T1 construct: DNA constructs encoding human LBD domains of human PPARα, PPARγ, of LXRα (pGAL4-PPARα, pGAL4-PPARγ, pGAL4-LXRα); expressed in transfected cells; host or cells: HepG2
T1 sequence (Q13133 209-447 limits assumed): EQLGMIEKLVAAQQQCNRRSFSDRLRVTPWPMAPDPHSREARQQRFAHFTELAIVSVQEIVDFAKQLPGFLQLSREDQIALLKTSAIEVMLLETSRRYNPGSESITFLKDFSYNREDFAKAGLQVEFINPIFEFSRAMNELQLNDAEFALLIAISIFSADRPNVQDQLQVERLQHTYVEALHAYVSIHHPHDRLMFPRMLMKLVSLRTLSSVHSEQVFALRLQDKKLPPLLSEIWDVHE
Description: Bezafibrate, GW7647 and WY14643 are known PPARα ligands. […] GW3965 is known high-affinity LXRα ligand.
Inverse agonistic/antagonistic activities of tested compounds to LXRα receptor activated by the LXRα agonist GW3965(10 µM). […] Negative value indicates inverse agonism.
(§1) In HepG2 cells, luciferase gene reporter assays have been performed with the transiently transfected reporter gene luciferase construct with the UAS yeast binding site interacting with GAL4 protein (pGL5-UAS 9x, Promega). DNA constructs encoding human LBD domains of human PPARα, PPARγ, of LXRα (pGAL4-PPARα, pGAL4-PPARγ, pGAL4-LXRα) have been cotransfected with the reporter construct. For FXR, FXRE-luc construct with FXR response elements upstream of Firefly luciferase has been used together with an expression construct for human FXR for HepG2 cells transfection. HepG2 cells were then treated with compounds of the invention for 24 h.

human PPARα = target: T2, human PPARα (Homo sapiens, UniProt Q07869); test: PPARα responsive luciferase reporter gene assay (pGAL4-PPARα / pGL5-UAS 9x) in HepG2 cells; type: cell-based; conditions: relative activation to fenofibrate 10 µM (100%), HepG2, 24 h, negative value indicates inverse agonism
T2 construct: DNA constructs encoding human LBD domains of human PPARα, PPARγ, of LXRα (pGAL4-PPARα, pGAL4-PPARγ, pGAL4-LXRα); expressed in transfected cells; host or cells: HepG2
T2 sequence (Q07869 239-466 limits assumed): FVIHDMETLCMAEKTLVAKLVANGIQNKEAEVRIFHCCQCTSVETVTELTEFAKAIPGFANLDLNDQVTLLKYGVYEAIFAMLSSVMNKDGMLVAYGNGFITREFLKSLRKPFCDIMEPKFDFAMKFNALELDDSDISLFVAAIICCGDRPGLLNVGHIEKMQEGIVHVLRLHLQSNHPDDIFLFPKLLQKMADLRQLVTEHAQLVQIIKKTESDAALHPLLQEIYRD
From the text: Bezafibrate, GW7647 and WY14643 are known PPARα ligands. […] GW3965 is known high-affinity LXRα ligand. […]
as §1

[2] = 10 mg/kg p.o. daily for 3 weeks (hydrochloride), vs HFD group

SMILES: C[C@@H](Oc1ccc(Oc2ccc3c(Cl)cccc3n2)cc1)C(=O)O [compound 37, (R)-2-(4-((5-Chloroquinolin-2-yl)oxy)phenoxy)propanoic acid]
- Cyp7a1 expression in the mouse liver (C57BL/6J mice): down-regulates
- Fasn gene expression in the mouse liver (C57BL/6J mice): down-regulate
- Pck1 gene expression in the mouse liver (C57BL/6J mice): down-regulate
- cholesterol efflux transporters Abcg5/8 expression in the mouse liver (C57BL/6J mice): down-regulates
- key protein involved in fatty acid (beta) oxidation, mRNA expression in the mouse liver (C57BL/6J mice): up-regulate
- ALP plasma levels [1, 2]: increases
- ALT plasma levels [1, 2]: improves
- AST plasma levels [1, 2]: improves
- plasma triglyceride (TG) levels [1, 2]: significantly decreases
- abdominal fat weight (AFW) ([1]; 10 mg/kg p.o. daily for 3 weeks, effect not statistically significant): decreased
- body weight (BW) ([1]; 10 mg/kg p.o. daily, after three weeks of treatment): significantly decreased
- glucose plasma levels in Intraperitoneal Glucose Tolerance Test (IPGTT) ([1]; after 15 minutes, 10 mg/kg p.o. daily): significantly decreased
- glucose plasma levels in Intraperitoneal Glucose Tolerance Test (IPGTT) ([1]; other intervals, 10 mg/kg p.o. daily): the decrease was not statistically significant
- inhibition at 10 µM (human LXRα): 39%
- Emax at 10 µM (human PPARα): 8%

From patent publication EP4583874B1, “MULTITARGET NUCLEAR RECEPTOR LIGANDS BASED ON 2-(4-(QUINOLIN-2-YLOXY)PHENOXY)PROPANOIC ACID AND 2-(4-(QUINOXALIN-2-YLOXY)PHENOXY)PROPANOIC ACID FOR THE TREATMENT OF METABOLIC AND LIVER DISEASES” (CHARLES UNIVERSITY, FACULTY OF PHARMACY IN HRADEC KRALOVE, priority 2022, dated 2024)
